Data on four compounds can be found in patent US20110182943A1, “METHODS OF IMMUNE OR HEMATOLOGICAL ENHANCEMENT, INHIBITING TUMOUR FORMATION OR GROWTH, AND TREATING OR PREVENTING CANCER, CANCER SYMPTOMS, OR THE SYMPTOMS OF CANCER TREATMENTS” (FONTERRA CO-OPERATIVE GROUP LIMITED, priority 2007, published 2011).

A short description of data set [1]: Blood cell counts in 4T1 tumour-bearing mice. The data set is classed as in vivo, Balb/c mice.
The test system of data set [2] is 4T1 breast cancer tumours. Put plainly: 4T1 liver metastases. It counts as in vivo, Balb/c mice. Particulars: day 35. The text has this: Suppression of liver metastases: Similarly, the livers of the above mice were inspected for tumours and micrometastases. The livers were removed, section, and stained with hematoxylin/eosin, and the numbers of metastatic nodules inside the livers were counted.

The next data set deals with 4T1 tumour cells. The data set is described as follows: 4T1 breast cancer primary tumour growth. The data set is classed as in vivo, Balb/c mice.
Data set [3] is described as follows: Paclitaxel-induced apoptosis in jejunal crypts (TUNEL). Particulars: paclitaxel 30 mg/kg i.p. It counts as in vivo, Balb/c mice. The procedure: Tumours were excised and immediately frozen in dry ice, and stored at −70° C. for later in situ detection of apoptotic cells in tumours. Frozen serial sections of 6-μm thickness were fixed with paraformaldehyde solution (4% in PBS, pH 7.4), and permeabilized with a solution containing 0.1% Triton X-100 and 0.1% sodium citrate. They were incubated with 20 μl TUNEL reagent (In Situ apoptosis detection kit from Boehringer Mannheim, Germany) for 60 min at 37° C., and examined by fluorescence microscopy. Adjacent sections were counter-stained with haematoxylin to count the total number of cells, or the number of apoptotic cells in ten randomly selected fields (magnification of ×40). The apototic index (AI) was calculated as the number of apoptotic cells×100/total number of nucleated cells. For detection of apoptotic cells in vitro, the numbers of apoptotic and necrotic tumour cells were measured by staining with annexin-V-fluos, TUNEL, and trypan blue. For measurement of gut apoptosis, jejunal sections were stained by the TUNEL method using a DeadEnd™ Fluorometric TUNEL System (Promega, Madison, Wis., USA). Apoptotic cells in 10 randomly selected cypts were counted, and the data expressed as apoptotic bodies per crypt.

Another data set concerns 4T1 primary tumours. Put plainly: 4T1 tumour angiogenesis (anti-CD31 staining). The data set is classed as in vivo, Balb/c mice. The following applies: day 35. The procedure: To determine tumour vascularity, 10-μm frozen tumour sections were fixed with acetone, rinsed with PBS, blocked with 2% BSA for 2 hr, and incubated overnight with the anti-CD31 antibody MEC13.3, or an anti-CD105 mAb. They were subsequently incubated for 30 min with secondary antibodies using the VECTASTAIN Universal Quick kit (Vector Laboratories, Burlingame, Calif., USA); and developed with Sigma FAST DAB (3,3′-diaminobenzidine tetrahydrochloride) and CoCl2 enhancer tablets (Sigma), and counterstained with hematoxylin. Stained blood vessels were counted in five or six blindly chosen random fields (0.155 mm^2) at ×40 magnification, and the mean of the highest three counts was calculated. […]
The above 4T1 primary tumours (Example 8; day 35) of untreated mice fed the control diet, paclitaxel-treated mice fed the control diet, untreated mice fed milk fat, and paclitaxel-treated mice fed milk fat were excised, sectioned, and stained with an anti-CD31 antibody to identify vascular endothelial cells so as to measure tumour angiogenesis. Blood vessels stained with the anti-CD31 mAb were counted in blindly chosen random fields to record mean vessel density (8A), or the median distance to the nearest CD31 mAb-labeled blood vessel from an array point (8B).

The test system of data set [4] is jejunal γ-glutamyl transpeptidase (γ-GGT). The following applies: paclitaxel 30 mg/kg i.p.
Experimental: The activity of jejunal γ-glutamyl transpeptidase (γ-GGT) was recorded as a separate measure of gut damage, as described previously Ziotnik et al., 2005). A segment of the jejunum (approximately 5 cm) was excised and flushed with 10 ml of PBS, and cut into two 2 cm^2 segments which were placed into 1.0 ml of 1.0% Triton X-100, 0.15 M NaCl, 100 mM Tris, pH 8.0 (Tris buffer). Twenty microlitres of a solution containing 0.3 ml of 100 mM glycyl-glycine, pH 8.0, 0.08 ml Tris buffer, 0.5 ml of 5 mM γ-glutamyl-p-nitroanilide was added to final volume of 0.9 ml. The gut slices were incubated for 10 min in a shaking water bath at 37° C., and γ-GGT activity read at 405 nm. Results were expressed as units of γ-GGT activity per cm of jejunum, where one unit is defined as the γ-GGT activity that releases 1.0 mol of p-nitroaniline in 1 h.
To determine whether milk fat protected the gut against paclitaxel-induced damage, groups of 6 Balb/c mice were fed the base AIN-93 diet, or the same diet substituted with 5% milk fat, representing ˜71% of the fat component of the diet. Two weeks later each mouse received an intraperitoneal injection of paclitaxel (30 mg/kg body weight). One week later they were killed and the jejunum was removed.
Data set [5] has as its system 4T1 breast cancer tumours. The data set is described as follows: 4T1 lung surface metastases. The data set is classed as in vivo, Balb/c mice. Particulars: day 35. The text has this:
Suppression of lung metastases: The 4T1 breast cancer cell line is highly metastatic and disseminates to the lung and liver. The lungs of the mice in Example 8 (day 35) were inspected for tumours and micrometastases. The mean numbers of tumours on the lung surface of untreated mice fed the control diet, paclitaxel-treated mice fed the control diet, untreated mice fed milk fat, and paclitaxel-treated mice fed milk fat were 32, 18, 22, and 10, respectively (FIG. 6).

The conditions of data set [6]: paclitaxel 30 mg/kg i.p.
Experimental: The jejuni from mice were fixed in 4% paraformaldehyde, embedded in paraffin, sectioned at 4 μm, and sections stained with hematoxylin-eosin. In each specimen, 20 well preserved villi were randomly selected and their lengths were measured by microscopy using an objective micrometer.
To determine whether milk fat protected the gut against paclitaxel-induced damage, groups of 6 Balb/c mice were fed the base AIN-93 diet, or the same diet substituted with 5% milk fat, representing ˜71% of the fat component of the diet. Two weeks later each mouse received an intraperitoneal injection of paclitaxel (30 mg/kg body weight). One week later they were killed and the jejunum was removed. Paraffin-embedded sections of the jejunum of mice treated with control diet, milk fat diet, control diet plus paclitaxel, and milk fat diet plus paclitaxel were stained with hematoxylin and eosin.
Data set [7] is described as follows: Body, tumour, organ and tissue weights (cachexia) in 4T1 tumour-bearing mice.
Experimental: Tumours were established by s.c. injection of 2×10^5 EL-4 or 2×10^4 4T1 cells into the left flank of mice, and tumour growth determined by measuring two perpendicular diameters. […] All experiments included 5 or 6 mice per treatment group, unless otherwise indicated. Paclitaxel (30 mg dissolved in 5 ml of Cremophor® EL and dehydrated alcohol) was diluted in 0.9% NaCl and administered i.p. at 30 mg/Kg. In the case of the 4T1 metastatic model of breast cancer, after the mice were euthanased at the end of experiments, the organs including lung, liver and spleen were removed and weighed.
The mice were weighed at the start and end of the experiment. After the mice were euthanased, the tumours were excised and weighed. To determine the extent of adipose tissue and muscle wasting, epididymal adipose tissue and the left gastrocnemius muscle were dissected and weighed. The carcass weight was calculated as the difference in weight between the whole body and the tumour.
The conditions of data set [8]: single injection 300 mg/Kg i.p.; control diet. How it is done: (§1) Groups of six C57BL/6 mice were fed an AIN93G diet or the same diet substituted with either 5%, 25% or 70% milk fat, and after 4 weeks of feeding were injected intraperitoneally with cyclophosphamide (300 mg/Kg of body weight) at day 0. The mice were killed 4, 8, and 12 days later, and tissues analyzed for the side-effects of drug treatment, as described below.

For data set [9] the following is noted: day 4; 300 mg/Kg i.p.; irrespective of the diet fed. The procedure:
Cyclophosphamide, diluted in PBS, was administered i.p. at 300 mg/Kg.
as §1

In another data set the test system is EL-4 tumour cells. Put plainly: EL-4 lymphoma tumour growth in mice fed experimental diets. It counts as in vivo, C57BL/6 mice. The text has this: Mice were challenged subcutaneously with 2×10^5 EL-4 tumour cells two weeks after being placed on the diets. Tumour size as measured by two perpendicular diameters (in centimetres) was monitored until day 91, or until tumours reached 1 cm in diameter. Each point represents the mean tumour size with 95% confidence intervals for either 6 mice, or the number of mice indicated.
Groups of six mice were fed a control AIN-93G diet, diets containing either 28 g Lf+ or 120 g of milk fat (AMF) per 2.4 Kg of diet, or a diet containing a combination of both Lf and milk fat. Day 0 refers to the day the mice were placed on their diets. After 2 weeks on the diets, 2×10^5 EL-4 cells were injected into the flanks of mice. Tumour size as measured by two perpendicular diameters (in centimetres) was monitored until day 56. Each point represents the mean tumour size with 95% confidence intervals for either 6 mice, or the number of mice indicated.
Mice were challenged subcutaneously with EL-4 tumour cells two weeks after being placed on the diets. Tumour size was again measured by two perpendicular diameters (in centimetres).

The mark [10] stands for this setting: paclitaxel chemotherapy, control diet.
Setting [11] is: tumour-bearing mice, mean ± SEM, n = 6.

Experimental for 4T1 tumour cells: Tumours were established by s.c. injection of 2×10^5 EL-4 or 2×10^4 4T1 cells into the left flank of mice, and tumour growth determined by measuring two perpendicular diameters. Animals were euthanased when tumours reached more than 1.0 cm in diameter, in accord with Animal Ethics Approval (University of Auckland). All experiments included 5 or 6 mice per treatment group, unless otherwise indicated. Paclitaxel (30 mg dissolved in 5 ml of Cremophor® EL and dehydrated alcohol) was diluted in 0.9% NaCl and administered i.p. at 30 mg/Kg.
Groups of 6 Balb/c mice were fed the base AIN-93 diet, or the same diet substituted with 5% milk fat, representing ˜71% of the fat component of the diet. Mice were challenged subcutaneously with 2×10^4 4T1 tumour cells two weeks after being placed on the diets. The mice were monitored for tumour growth, and tumour size was measured every three days.

For the compound `CC(=O)O[C@H]1C(=O)[C@@]2(C)[C@H]([C@H](OC(=O)c3ccccc3)[C@]3(O)C[C@H](OC(=O)[C@H](O)[C@@H](NC(=O)c4ccccc4)c4ccccc4)C(C)=C1C3(C)C)[C@]1(OC(C)=O)CO[C@@H]1C[C@@H]2O` [paclitaxel], in data set [1] (setting [10]), the “reduction in RBC count compared to tumour-bearing mice fed the control diet” value is 49% and the “reduction in WBC count compared to tumour-bearing mice fed the control diet” value was found to be 44%. Moreover, in [1] (setting [11]), the RBC was 3.21 ± 0.74^3 ×10^6/μl and the WBC is given as 2.37 ± 0.39^3 ×10^3/μl. Further, in data set [2], the “mean number of liver metastases” value stood at 59 and the “reduction in numbers of tumours in the liver compared with untreated mice fed the control diet” value worked out at 45%. In addition, in the data set with 4T1 tumour cells (day 35, 5% milk fat diet, paclitaxel 30 mg/kg i.p. at ~0.5 cm), the “reduction in tumour size compared with untreated mice fed the control diet” value came to 31%. Also, the “increase in apoptotic body count per crypt compared with untreated mice” value in data set [3] was 6 fold. Further, in the data set with 4T1 primary tumours, the “increase in median distance to the nearest CD31+ vessels compared with untreated mice fed the control diet” value came out at 71% and the “reduction in microvessel density (CD31+ vessels) compared with untreated mice fed the control diet” value was determined as 37%. Further, in data set [4], the “reduction in jejunal γ-GGT activity compared to untreated control mice” value was 56%. Moreover, in data set [5], the “mean number of tumours on the lung surface” value was 18 and the “reduction in numbers of tumours on the lung surface compared with untreated mice fed the control diet” value turned out to be 44%. For the same compound, the “appearance of jejunal villi in sections” value in data set [6] (hematoxylin and eosin) is “broken and flattened villi”. For the same compound, the “reduction in average length of the villi compared with control mice” value in [6] (jejunum one week later) was 61%. In addition, in data set [7] (day 35, tumour-bearing mice), the “reduction in lung weight compared to untreated mice fed the control diet” value is listed as 30%. Moreover, the “reduction in spleen weights compared to tumour-bearing mice fed the control diet” value in data set [7] (setting [10]) amounted to 8.5%. In data set [7] (setting [11]), this compound yielded a Body weight of 17.7 ± 1.5 g, a Carcass body weight of 17.6 ± 1.4 g, an Epididymal adipose tissue of 24.3 ± 6.7 mg and a Gastrocnemius muscle of 101.2 ± 9.3 mg. Further, in data set [7] (setting [11]), the Liver is on record as 1210.1 ± 72.4 mg, the Lung is recorded as 274.5 ± 30.6^3 mg, the Spleen is on record as 72.35 ± 8.2^3 mg and the Tumor is reported as 103.4 ± 24.1^3 mg.
Turning to `O=P1(N(CCCl)CCCl)NCCCO1` (centres unmarked) [cyclophosphamide], in data set [8], the “reduction in average length of the villi compared with healthy control mice” value is on record as 65%. Further, the “reduction of peripheral WBC count” value in data set [9] was “more than 90%”.
As to `CCCCCC/C=C/C=C\CCCCCCCC(=O)O` (single isomer, unassigned) [c-9, t-11 CLA isomer], in the data set on 4T1 tumour cells (5 g per 2.4 Kg of diet), the “synergy with Lf+” value is recorded as “no synergy”. Further, the “effect on growth of 4T1 tumours” value in the data set on 4T1 tumour cells (5 g per 2.4 Kg of diet, 3% of the fat component) is “only wealdy inhibited”.
Regarding sphingomyelin, in the data set with EL-4 tumour cells (1.2 g per 2.4 Kg of diet), the “delay of tumour growth in two mice” value is ~1 week and the “delay of tumour growth in two other mice” value is on record as ~2 weeks. Moreover, in the data set on EL-4 tumour cells (groups of five mice, per 2.4 Kg of diet: 28 g Lf+, 120 g Phospholac 600, 1.2 g sphingomyelin), the “effect on tumour growth / tumorigenesis in individual mice” value is listed as “no appreciable affect on tumour growth of the remaining mouse”.
